Laboratory results from patent US8394376B2, “Therapeutic agents for alzheimer's disease and cancer” (The University of Tokyo, priority 2006, dated 2013).

How the values were obtained:
HEK/SC100G cells = assay: GAL4-UAS luciferase reporter assay in living cells; type: cell-based; settings: final concentration 10 μM
Source text: A preproenkephalin-derived signal peptide was inserted into C99, and GAL4 (i.e., a yeast-derived transcription factor) was inserted immediately downstream of the transmembrance domain of C99, to thereby prepare a construct (SC100G). The construct (SC100G) was subcloned into pcDNA3.1/Hygro vector (Invitroger).
A UAS sequence was inserted upstream of luciferase in pGL3(R2.2) vector (Promega), to thereby prepare a construct (UAS-luc), and the construct was employed as a reporter construct. eGFP was subcloned into pcDNA3 (Invitrogen), and the thus-prepared pcDNA3-eGFP was employed as a control vector for monitoring the number of cells. […]
(§1) HEK/SC100G cells or HEK/NΔEGV cells were inoculated into a 48-well multiplate (2.5×10^4 cells). […] After culturing for 12 hours, cells and a culture supernatant were recovered, and the amount of Aβ was determined through a reporter assay or ELISA.
(§2) The recovered cells were lysed in a lysis buffer (Promega), and the resultant lysate was subjected to the reporter assay. […] The amount of luciferase luminescence was normalized by the concentration of protein (in the case of HEK/SC100G cells), or by the amount of eGFP luminescence (in the case of HEK/NΔEGV cells), to thereby yield relative light unit (RLU). […]

HEK/NΔEGV cells = assay: GAL4-UAS luciferase reporter assay in living cells; type: cell-based; settings: final concentration 10 μM
Source text: GAL4/VP16 was bound to NΔE (including N99), in which deletion occurs in the extracellular domain of Notch receptor and which serves as a direct substrate for γ-secretase in a ligand-independent manner, to thereby prepare a construct (NΔEGV, Taniguchi Y., Karlstrom K., Lundkvist J., Mizutani T., Otaka A., Vestling M., Bernstein A., Donoviel D., Lendahl U., Honjo T.: Notch receptor cleavage depends on but is not directly executed by presenilins. Proc. Natl. Acad. Sci. U.S.A 2002, 99: 4014). The construct (NΔEGV) was subcloned into pcDNA3.1 vector (pcDNA3.1-NΔEGV). […]
as §1, §2

HeLa cells = assay: Cell viability by the MTT method; type: cell-based, human; settings: final concentration 100 μM, 72 hours, vs untreated, FIG. 12
Protocol: (§3) HeLa cells or A549 cells (5×10^3 cells) were inoculated onto a 96-well multiplate and treated with DAPT (final concentration: 100 μM) for 72 hours. After the 72-hour treatment, MTT diluted with PBS was added to the plate so that the final MTT concentration was 500 μg/mL, followed by culturing at 37° C. for three to four hours. Thereafter, stop solution (10% SDS, 0.01 M HCl) was added to the plate for termination of reaction, and the plate was allowed to stand still at 37° C. overnight, followed by dissolution of produced formazan. The formazan solution was uniformly mixed through pipetting, and absorbance was measured at 550 nm, to thereby calculate cell viability. […] Subsequently, in order to confirm that this reduction in cell viability was attributed to inhibition of γ-secretase activity, endogenous nicastrin of A549 cells was knocked down through treatment with nicastrin-corresponding short interference RNA (siRNA), and change in cell viability was determined. As a result, in the case of treatment with nicastrin siRNA, cell viability was reduced by about 20%, as compared with the case of treatment with siRNA having a random sequence (scramble) (FIG. 13).

A549 cells = assay: Cell viability by the MTT method; type: cell-based, human; settings: final concentration 100 μM, 72 hours, vs untreated, FIG. 12
Protocol: as §3, with “As a result, in the case of treatment with nicastrin siRNA, cell viability was reduced by about 20%, as compared with the case of treatment with siRNA having a random sequence (scramble) (FIG. 13).” left out
Subsequently, the effect of the above-prepared antibodies on survival of A549 cells was examined. Each of the antibodies was added to A549 cells so that the final antibody concentration was 10 μg/mL, and, 96 hours after addition of the antibody, cell viability was determined through the MTT method.

C[C@H](NC(=O)Cc1cc(F)cc(F)c1)C(=O)N[C@H](C(=O)OC(C)(C)C)c1ccccc1 [DAPT]
reporter activity (HEK/SC100G cells): inhibit reporter activity | reporter activity (HEK/NΔEGV cells): inhibit reporter activity | cell viability (HeLa cells): no significant difference | cell viability (A549 cells): significantly lower
